Experimental findings from US11622980B2, “Compositions comprising prebiotics and probiotics” (OPTIBIOTIX LIMITED, priority 2017, dated 2023) are described below.

Entries after “also recorded” stand apart in the source; their conditions may differ. Like-named read-outs stand apart in the source and are kept apart here.

In data set [1] the test system is Bacteroides/Prevotella (Bac303). The experiment in a line: FISH of commensal bacteria in pH controlled faecal culture, probe Bac303. The format is cell-based, healthy adults. The settings on record: pH controlled anaerobic faecal culture. As to the method:
(§1) All vessels, run in parallel, were to be inoculated with the same faecal sample and the experiment repeated using a faecal sample from each of six different healthy donors. Samples were to be obtained at inoculation (0 h) and then at 8 and 24 h of fermentation for: determination of LR levels in faecal culture using qPCR; and determination of the impact of each intervention on commensal faecal microbiome composition using FISH to ensure novel prebiotic will not be fermented by undesirable bacteria and ensure selectivity in a complex, competitive culture environment. Analysis targeted numerically dominant and functionally significant faecal bacterial groups including Bacteroides, Clostridium, Eubacterium, Propionibacterium, Bifidobacterium, Lactobacillus, Faecalibacterium, Atopobium, and Desulfovibrio.
(§2) An in vitro assessment of synbiotic efficacy in faecal culture using a pH controlled, anaerobic, temperature controlled cultures. The cultures were inoculated with faecal slurry of each of 6 healthy adults. […]
(§3) Fluorescent in situ hybridisation (FISH) experiments were then conducted to investigate the impact on commensal gut microbiome bacterial populations in faecal culture and the fluorescently labelled micrographs are shown in FIG. 20. FISH is a fully quantitative methodology for determining bacterial concentrations at the genus and species level. […]

Data set [2] has as its system gas producing members of the faecal microbiota. Briefly: Rate of gas and cumulative gas determination in non-pH controlled faecal culture. It is filed as cell-based, healthy adults. As to the method:
The aims of this experiment were to determine: (i) the total gas production over a 24 h fermentation period of each of carbohydrate of interest; (ii) the kinetics of gas production (rate) to evaluate the potential of increased abdominal discomfort in vivo upon the ingestion of the carbohydrates of interest; and (iii) the impact of using the selected carbohydrates in combination with LR on total and rate of gas production.
Determination of rate of gas was of particular importance as gas generation at specific time points rather than continuously at low or moderate levels may correlate with abdominal discomfort in vivo and important in relevance to consumer acceptability.
The experiments investigated the potential for gastrointestinal discomfort in vitro, through the determination of rate of gas and cumulative gas production in faecal culture. The cultures were non-pH controlled and six experimental runs were conducted using faeces from six different healthy adults. Headspace gas readings collected every 3 h over a 24 h period for rate of gas determination
The experimental design was as follows: • Faeces • Faeces+L. rhamnosus ATCC 53103 (negative control) • Faeces+Inulin HP (positive prebiotic control) • Faeces+Inulin HP+L. rhamnosus ATCC 53103 (positive synbiotic control) • Faeces+test carbohydrate • Faeces+test carbohydrate+L. rhamnosus ATCC 53103 Lactobacillus rhamnosus ATCC 53103 Test Dose Determination
Intervention dose used in the non-pH controlled gas determination experiments and the pH controlled faecal batch culture experiments was calculated based on the relative amounts of faecal inoculum and LR viable counts in the gut model (low dose, 0.75×10^4 cfu) and the relative concentrations of total bacteria to LR viable counts in the gut model (high dose, 5.36×10^4 cfu). Both doses were tested in the non-pH controlled gas determination faecal cultures to determine the possible role of LR in rate and cumulative gas production.

Data set [3] relates to Lactobacillus/Enterococcus (Lab158). Briefly: FISH of commensal bacteria in pH controlled faecal culture, probe Lab158. It is filed as cell-based, healthy adults. How it is done:
as §1, §2, §3

In data set [4] the test system is L. rhamnosus ATCC 53103. The experiment in a line: qPCR determination of LR concentrations in anaerobic pH controlled faecal batch culture. The format is cell-based, Lactobacillus rhamnosus. The settings on record: for LR concentration (growth) in faecal culture: pH controlled anaerobic faecal batch culture, 1% w/v substrate, LR 5.36×10^4 cfu. How it is done: Synbiotic potential of the selected oligosaccharides/blends was then to be determined in 24 h, anaerobic, pH and temperature controlled micro-scale faecal (10 ml working volume) faecal batch culture models.
The models had been optimised to work at 1% w/v test oligosaccharide concentration and carried out at pH6.8, which is relevant to the distal colon. Conditions in the distal colon (carbohydrate availability, very slow transit time) are more relevant to batch culture design. Fermentations were to be set up in parallel in identical conditions with the only variable being the test oligosaccharides. The following combinations were to be tested in each experimental run: • Faeces (prebiotic negative control) • Faeces+LR (synbiotic negative control) • Faeces+LR+GeOS (gentiooligosaccharides) • Faeces+LR+Cellb (cellobiose) • Faeces+LR+XOS (xylooligosaccharides) • Faeces+GeOS • Faeces+Cellb • Faeces+XOS • Feces+inulin (positive prebiotic control for test prebiotics) • Faeces+FOS (positive prebiotic control for test prebiotics) • Faeces+LR+inulin (positive prebiotic control for test synbiotics) • Faeces+LR+FOS (positive prebiotic control for test synbiotics)
as §1, with “Samples were to be obtained at inoculation (0 h) and then at 8 and 24 h of fermentation for: determination of LR” left out
(§4) An in vitro assessment of synbiotic efficacy in faecal culture using a pH controlled, anaerobic, temperature controlled cultures. The cultures were inoculated with faecal slurry of each of 6 healthy adults. The combinations included: • Faeces (prebiotic negative control) • Faeces+LR (synbiotic negative control) • Faeces+LR+GeOS (gentiooligosaccharides) • Faeces+LR+Cellb (cellobiose) • Faeces+LR+XOS (xylooligosaccharides) • Faeces+GeOS • Faeces+Cellb • Faeces+XOS • Feces+inulin (positive prebiotic control for test prebiotics) • Faeces+FOS (positive prebiotic control for test prebiotics) • Faeces+LR+inulin (positive prebiotic control for test synbiotics) • Faeces+LR+FOS (positive prebiotic control for test synbiotics)
No commensal LR was detected in the prebiotic only cultures (data not shown).
The primers for the real-time PCR determination was as follows: […]

The test system of data set [5] is L. rhamnosus ATCC 53103. Briefly: Pure culture growth screening of L. rhamnosus ATCC 53103 on oligo/polysaccharides. It is filed as cell-based, Lactobacillus rhamnosus. From the text:
Commercially available prebiotics and other oligo and polysaccharides were first screened using a fast throughput automated growth culture system under anaerobic conditions to establish ability to support LR growth and define growth rates (1% w/v). The following test substrates had been initially identified for further consideration: Short chain fructooligosaccharides (scFOS), oligofructose P95 (FOS), Orafti ST, Orafti HP, Synergy 1, Bioecolians (glucooligosaccharides), gentiooligosaccharides, fucosyllactose, ß glucan (low/medium/high molecular weight; derived from oats), yeast ß glucan, arabinoxylan, xylooligosaccharides, caseinoglycomacropeptide (cgmp), raffinose, stachyose and Bio-Mos.
The aim of the experiment was to investigate the growth behavior of L. rhamnosus ATCC 53103 under a wide variety of commercially available, oligo and polysaccharides and to evaluate impact of test substrate physical characteristics on screening process and investigate growth on GOS synthesized by L. rhamnosus GR1 β-galactosidases. Results would be evaluated on the basis of: microbial growth (OD-Fermentation time); growth rate [μmax(h^−1)]; and change in optical density (max-min). Growth preferences of Lactobacillus rhamnosus ATCC 53103 would be used to determine target structures and carbohydrates for use as prebiotics for L. rhamnosus species or strains. […]

In data set [6] the test system is Lactobacillus plantarum 2830 (ECGC 13110402). The experiment in a line: Pure culture growth of Lactobacillus plantarum 2830 (LP-LDL) on carbohydrate sources. The format is cell-based. The settings on record: modified MRS, glucose (1% wt/vol) substituted, anaerobic, 37° C., OD 620 nm. How it is done: Similar growth experiments to Example 1 above were conducted on Lactobacillus plantarum 2830 (ECGC 13110402) on a range of substrates including, MRS+LP, Glucose, Lactose, LP GOS, alphaGOS (a proprietary GOS product), Raffinose, Galactose, Cellobiose, FOS (short chain), Sucrose, GOS I (a proprietary GOS product), GOS II (a proprietary GOS product), GOS III (a proprietary GOS product) and Gentiooligosaccharides (GeOS). […] Experiments were carried out under anaerobic conditions on a 96-well microtiter plate system (FLUOstar Omega, BMG LABTECH) in a final volume of 200 μL using an inoculum size 10% (w/v), previously diluted to obtain an initial OD620 nm=0.2. Incubation was conducted under anaerobic conditions at 37° C. with interval shaking at 500 rpm every 5 min. Optical density measurements at 620 nm were employed to assess microbial growth.

The next data set has as its system Ato291 (Atopobium). Briefly: FISH of commensal bacteria in pH controlled faecal culture, probe Ato291. It is filed as cell-based, healthy adults. Conditions: pH controlled anaerobic faecal culture, FIG. 25. As to the method: as §1, §2, §3
Data set [7] concerns L. rhamnosus ATCC 53103. The experiment in a line: Organic acid (SCFA and lactate) synthesis in pH controlled faecal batch culture. The format is cell-based, Lactobacillus rhamnosus. The settings on record: pH controlled faecal batch cultures with LR.
Description: Lastly, determination of faecal microbiome activity through organic acid (SOFA and lactate) measurement was to be conducted at each sampling point. Information will indicate potential fermentation rates of each novel prebiotic.
as §4

On to `O=C[C@H](O)[C@@H](O)[C@H](O[C@@H]1O[C@H](CO)[C@@H](O)[C@H](O)[C@H]1O)[C@H](O)CO` [cellobiose], for which the “Bacteroides/Prevotella (Bac303) concentration” value in data set [1] is given as “some impact”. Also, the “rate of gas production” value in data set [2] (24 h non-pH controlled faecal culture, readings every 3 h, relative to inulin) is listed as “comparable to that of inulin”. Further, the cumulative gas production result in data set [2] (24 h non-pH controlled faecal culture, relative to inulin) was “comparable to that of inulin”. Moreover, in data set [2] (24 h non-pH controlled faecal fermentation, six faecal donors), the “donors sensitive to the test oligosaccharide (total gas production)” value (shortened to “donors sensitive”) was “Donors 4 and 7; also recorded: donor 5”. Moreover, the “responders within the 6 faecal donors (Lab158)” value in data set [3] (compared to the positive controls (inulin and FOS)) was “More responders”. Also, in data set [3] (pH controlled anaerobic faecal culture, six healthy adults, FISH), the “Lab158 (Lactobacillus/Enterococcus) concentration” value is listed as “significant increase”. Further, in the data set on L. rhamnosus ATCC 53103 [4] (0, 10 and 24 h pH controlled faecal batch culture, six volunteers, qPCR), the “volunteers showing an increase of L. rhamnosus ATCC 53103 concentrations” value is recorded as “Five out of the six”. For the same compound, the “LR concentration (growth) in faecal culture” value with L. rhamnosus ATCC 53103 [4] (qPCR) is “growth of LR”. For the same compound, the “LR concentration (growth) in faecal culture” value in the data set on L. rhamnosus ATCC 53103 [4] (qPCR, listed as Cellobiose) is “best growth substrate for LR; also recorded: increases in LR concentration”. For the same compound, in the data set on L. rhamnosus ATCC 53103 [4] (pH controlled faecal batch cultures, six donors), the “dependence of the effect on LR on faecal donor” value is “not dependent on faecal donor enterotype”. In addition, the lag phase result in the data set on L. rhamnosus ATCC 53103 [5] (pure culture growth curves, 1% (w/v) substrate, FIG. 9) is recorded as “notably longer lag phase”. The “growth of LR in pure culture” value in the data set with L. rhamnosus ATCC 53103 [5] (pure culture, modified MRS, 1% w/v test carbohydrate) was “can grow in pure culture”. Also, in data set [6], the “growth rates of LP-LDL” value is on record as “highest growth rates” and the “growth yields of LP-LDL” value is listed as “highest growth yields”. Also, the Ato291 concentrations entry with Ato291 (Atopobium) was “some increases”. In addition, in the data set on L. rhamnosus ATCC 53103 [7], the “LR activity (organic acid synthesis)” value was “mediated increases in LR concentration and activity”.

For the compound gentiooligosaccharides [GeOS], in data set [2], the “donors sensitive” value is “Donors 4 and 7”; the “rate of gas production” value is listed as “comparable to that of inulin”; the “tolerance by donors (total gas and rate of gas)” value is “tolerated the best by the majority of donors”.

On to xylooligosaccharides [XOS], for which, in data set [2], the “donors sensitive” value was “Donors 4 and 7”; the “rate of gas production” value was “comparable to that of inulin”; the “tolerance by donors (total gas and rate of gas)” value is “tolerated the best by the majority of donors”.
